Experimental data reported in patent US9309225B2, “N-((1-benzyl-1H-1,2,3-triazol-4-yl)methyl)arylamide compounds as potential anticancer agents and a process for the preparation thereof” (COUNCIL OF SCIENTIFIC & INDUSTRIAL RESEARCH, priority 2013, dated 2016).

Columns and labels:
NCI-H460 = assay: NCI sixty human tumor cell line screen, Non-small-cell-lung panel; assay type: cell-based; settings: NCI protocol
Procedure: (§1) The in vitro anticancer activity studies for these N-((1-benzyl-1H-1,2,3-triazol-4-yl)methyl) arylamide analogues were carried out at the National Cancer Institute, USA.
(§2) The N-((1-benzyl-1H-1,2,3-triazol-4-yl)methyl)arylamide analogues have been tested at NCI, USA, against sixty human tumor cell lines derived from nine cancer types (leukemia, non-small cell lung cancer, colon cancer, CNS cancer, melanoma cancer, ovarian cancer, renal cancer, prostate cancer and breast cancer). For these compounds results are expressed as growth inhibition (GI50) values as per NCI protocol.

NCI-H226 = assay: as above; assay type: cell-based; settings: NCI protocol
Procedure: as §1, §2

HOP-62 = assay: as above; assay type: cell-based; settings: HOP-62, Non-small-cell-lung, NCI protocol
Procedure: as §1, §2

EKVX = assay: as above; assay type: cell-based; settings: NCI protocol
Procedure: as §1, §2

NCI-H522 = assay: as above; assay type: cell-based; settings: NCI protocol
Procedure: as §1, §2

A549/ATCC = assay: as above; assay type: cell-based; settings: NCI protocol
Procedure: as §1, §2

M14 = assay: NCI sixty human tumor cell line screen, Melanoma panel; assay type: cell-based; settings: NCI protocol
Procedure: as §1, §2

UACC-62 = assay: as above; assay type: cell-based; settings: UACC-62, Melanoma, NCI protocol
Procedure: as §1, §2

LOX IMVI = assay: as above; assay type: cell-based; settings: NCI protocol
Procedure: as §1, §2

SK-MEL-28 = assay: as above; assay type: cell-based; settings: SK-MEL-28, Melanoma, NCI protocol
Procedure: as §1, §2

SK-MEL-2 = assay: as above; assay type: cell-based; settings: SK-MEL-2, Melanoma, NCI protocol
Procedure: as §1, §2

SK-MEL-5 = assay: as above; assay type: cell-based; settings: SK-MEL-5, Melanoma, NCI protocol
Procedure: as §1, §2

MDA-MB-435 = assay: as above; assay type: cell-based; settings: MDA-MB-435, Melanoma, NCI protocol
Procedure: as §1, §2

SK-OV-3 = assay: NCI sixty human tumor cell line screen, Ovarian panel; assay type: cell-based; settings: SK-OV-3, Ovarian, NCI protocol
Procedure: as §1, §2

OVCAR-4 = assay: as above; assay type: cell-based; settings: OVCAR-4, Ovarian, NCI protocol
Procedure: as §1, §2

NCI/ADR-RES = assay: as above; assay type: cell-based; settings: NCI protocol
Procedure: as §1, §2

OVCAR-8 = assay: as above; assay type: cell-based; settings: OVCAR-8, Ovarian, NCI protocol
Procedure: as §1, §2

OVCAR-3 = assay: as above; assay type: cell-based; settings: OVCAR-3, Ovarian, NCI protocol
Procedure: as §1, §2

MDA-MB-468 = assay: NCI sixty human tumor cell line screen, Breast panel; assay type: cell-based; settings: MDA-MB-468, Breast, NCI protocol
Procedure: as §1, §2

BT-549 = assay: as above; assay type: cell-based; settings: BT-549, Breast, NCI protocol
Procedure: as §1, §2

MDA-MB-31/ATCC = assay: as above; assay type: cell-based; settings: NCI protocol
Procedure: as §1, §2

T-47D = assay: as above; assay type: cell-based; settings: T47D, NCI protocol
Procedure: as §1, §2

PC-3 = assay: NCI sixty human tumor cell line screen, Prostate panel; assay type: cell-based; settings: PC-3, Prostate, NCI protocol
Procedure: as §1, §2

DU-145 = assay: as above; assay type: cell-based; settings: DU-145, Prostate, NCI protocol
Procedure: as §1, §2

SF-539 = assay: NCI sixty human tumor cell line screen, CNS panel; assay type: cell-based; settings: SF-539, CNS, NCI protocol
Procedure: as §1, §2

SF-268 = assay: NCI sixty human tumor cell line screen, CNS panel; assay type: cell-based; settings: SF-268, CNS, NCI protocol
Procedure: as §1, §2

SNB-75 = assay: NCI sixty human tumor cell line screen, CNS panel; assay type: cell-based; settings: SNB-75, CNS, NCI protocol
Procedure: as §1, §2

U251 = assay: NCI sixty human tumor cell line screen, CNS panel; assay type: cell-based; settings: U-251, NCI protocol
Procedure: as §1, §2

SF-295 = assay: NCI sixty human tumor cell line screen, CNS panel; assay type: cell-based; settings: SF-295, CNS, NCI protocol
Procedure: as §1, §2

SNB-19 = assay: NCI sixty human tumor cell line screen, CNS panel; assay type: cell-based; settings: SNB-19, CNS, NCI protocol
Procedure: as §1, §2

TK-10 = assay: NCI sixty human tumor cell line screen, Renal panel; assay type: cell-based; settings: TK-10, Renal, NCI protocol
Procedure: as §1, §2

ACHN = assay: as above; assay type: cell-based; settings: NCI protocol
Procedure: as §1, §2

786-0 = assay: as above; assay type: cell-based; settings: 786-0, Renal, NCI protocol
Procedure: as §1, §2

RXF 393 = assay: as above; assay type: cell-based; settings: RXF 393, Renal, NCI protocol
Procedure: as §1, §2

CAKI-1 = assay: as above; assay type: cell-based; settings: CAKI-1, Renal, NCI protocol
Procedure: as §1, §2

SN12C = assay: as above; assay type: cell-based; settings: NCI protocol
Procedure: as §1, §2

UO-31 = assay: as above; assay type: cell-based; settings: UO-31, Renal, NCI protocol
Procedure: as §1, §2

A498 = assay: as above; assay type: cell-based; settings: NCI protocol
Procedure: as §1, §2

COLO 205 = assay: NCI sixty human tumor cell line screen, Colon panel; assay type: cell-based; settings: COLO 205, Colon, NCI protocol
Procedure: as §1, §2

SW-620 = assay: as above; assay type: cell-based; settings: SW-620, Colon, NCI protocol
Procedure: as §1, §2

HCT-116 = assay: as above; assay type: cell-based; settings: HCT-116, Colon, NCI protocol
Procedure: as §1, §2

KM12 = assay: as above; assay type: cell-based; settings: NCI protocol
Procedure: as §1, §2

HT29 = assay: as above; assay type: cell-based; settings: HT-29, NCI protocol
Procedure: as §1, §2

With `O=C(NCc1cn(Cc2cccc(Oc3ccccc3)c2)nn1)c1cccnc1Nc1ccccc1` [Compound 1a, N-((1-(3-Phenoxybenzyl)-1H-1,2,3-triazol-4-yl)methyl)-2-(phenylamino)nicotinamide] the GI50 (NCI-H460) was 2.85 µM, the GI50 (NCI-H226) was 3.24 µM and the GI50 (HOP-62) was 5.58 µM. It also gave a GI50 (EKVX) of 5.18 µM, a GI50 (NCI-H522) of 2.11 µM and a GI50 (A549/ATCC) of 4.81 µM. For the same compound, the GI50 (M14) was 2.86 µM, the GI50 (UACC-62) was 3.02 µM and the GI50 (LOX IMVI) was 4.54 µM. The GI50 (SK-MEL-28) was 4.93 µM, the GI50 (SK-MEL-2) was 6.05 µM and the GI50 (SK-MEL-5) was 3.89 µM. The GI50 (MDA-MB-435) was 2.65 µM, the GI50 (SK-OV-3) was 5.94 µM and the GI50 (OVCAR-4) was 23.4 µM. It also gave a GI50 (NCI/ADR-RES) of 14 µM, a GI50 (OVCAR-8) of 7.44 µM and a GI50 (OVCAR-3) of 17.7 µM. For the same compound, the GI50 (MDA-MB-468) was 51.7 µM, the GI50 (BT-549) was 45.5 µM and the GI50 (MDA-MB-31/ATCC) was 14.5 µM. The GI50 (T-47D) was 21.4 µM, the GI50 (PC-3) was 20.4 µM and the GI50 (DU-145) was 8.58 µM. The melting point was 124 to 126 °C, the GI50 (SF-539) was 3.1 µM and the GI50 (SF-268) was 3.22 µM. It also gave a GI50 (SNB-75) of 1.94 µM, a GI50 (U251) of 3.61 µM and a GI50 (SF-295) of 3.69 µM. The GI50 (SNB-19) was 3.27 µM, the GI50 (TK-10) was 24.5 µM and the GI50 (ACHN) was 11.1 µM. For the same compound, the GI50 (786-0) was 23.2 µM, the GI50 (RXF 393) was 5.69 µM and the GI50 (CAKI-1) was 64.2 µM. The GI50 (SN12C) was 52.9 µM, the GI50 (UO-31) was 86.3 µM and the GI50 (A498) was 13.7 µM. It also gave a GI50 (COLO 205) of 2.79 µM, a GI50 (SW-620) of 3.97 µM and a GI50 (HCT-116) of 3.4 µM. It also gave a GI50 (KM12) of 3.63 µM and a GI50 (HT29) of 3.65 µM.
